Patent US20150126368A1, “METHOD OF PROVIDING PLANT WITH STRESS RESISTANCE” (Nippon Soda Co., Ltd., priority 2012, published 2015)
Read-outs that look alike come from different tables or passages of the source.

Legend:
[1] = tested on: tomato yellow leaf curl virus (TYLCV); assay: Test for symptom relief effects against tomato yellow leaf curl virus disease; type: in vivo; conditions: 500 ppm alone
Experimental: N,N-dimethylformamide based solutions were prepared according to the formulations shown in Table 18 to give chemical liquids for the tests.
Tomato nursery plants (breed: Momotaro) grown up to the 8 leaf stage in a greenhouse were prepared.
Tomato nursery plants suffering from tomato yellow leaf curl virus (TYLCV) were used as inoculation sources.
A diseased plant was obliquely cut in round slices at the stem, and graft-inoculated to a tomato nursery plant. In order to prevent dryness, parafilm was wrapped around the grafted portion for protection.
After the graft inoculation, the above chemical solution was sprayed on the stem and leaf part of the tomato nursery plant in a sufficient amount. Then, the above chemical solution was sprayed 3 times at intervals of about one week in a sufficient amount. Symptoms of tomato yellow leaf curl disease were investigated at an elapsed time of 25 days.
Symptoms were evaluated by 5 levels of onset indices of 0 (with no onset) to 4 (fulminant).
Onset inhibition percentages as compared with a region treated with solvent DMF only (Chemical solution 3) were computed by the following formula.
Onset inhibition percentage=(onset index of region treated with solvent only)−(onset index of each treatment region))/(onset index of region treated with solvent only)×100
Further, the expectation values of onset inhibition percentages were computed based on the Colby's equation.
The Colby's equation is E=M+N−MN/100. In the equation, E represents the expectation value of an onset inhibition percentage (%), and M represents an onset inhibition percentage (%) calculated from measurements when the substance (A1) is used alone, and N represent an onset inhibition percentage (%) calculated from measurements when the substance (A2) is used alone.

[2] = tested on: Tomato nursery plants (breed: Momotaro); type: in vivo; conditions: spray, 7 days; for phytotoxicity index: index 0 to 10
Experimental: N,N-dimethylformamide based solutions were prepared according to the formulations shown in Table 10 to give chemical solutions for the tests.
Tomato nursery plants (breed: Momotaro) grown up to the 4 leaf stage in a greenhouse were prepared.
The above chemical solution was sprayed to the stem and leaf parts of the above tomato nursery plants in an amount of liquid dropping, and then air dried. They were allowed to grow for 7 days under the average temperature and humidity conditions on March in Japan.
Subsequently, phytotoxicity such as a degree of leaf browning and outgrowth inhibition was investigated.
Phytotoxicity was evaluated by 11 levels of phytotoxicity indices of 0 (with no disorder) to 10 (withering to death).
Chemical poisoning injury relief percentages as compared with a region treated with solvent DMF only were computed by the following formula.
Chemical poisoning injury relief percentage=(phytotoxicity index of region treated with solvent only)−(phytotoxicity index of each treated region))/(phytotoxicity index of region treated with solvent only)×100

[3] = agric. chemical 100 ppm alone (reference)
[4] = agric. chemical 200 ppm alone (reference)

Row | Structure (SMILES) | Onset percentage(%) ([1]; tomato graft-inoculated, sprayed 4 times, 25 days) | Onset inhibition percentage(%) ([1]; vs solvent DMF only, 25 days) | Expectation value(%) ([1]; expectation value of onset inhibition percentage) | relief percents of phytotoxicity (%) [2, 3] [%] | phytotoxicity index ([2]; agric. chemical 100 ppm alone) | relief percents of phytotoxicity (%) [2, 4] [%] | phytotoxicity index ([2]; agric. chemical 200 ppm alone)
1 | O=C1O[C@H]([C@@H](O)CO)C(O)=C1O[C@H]1O[C@H](CO)[C@@H](O)[C@H](O)[C@H]1O [Ascorbyl glucoside] | 40 | 20 | 20 | – | – | – | –
2 | CO/C=C(/C(=O)OC)c1ccccc1Oc1cc(Oc2ccccc2C#N)ncn1 [Azoxystrobin] | – | – | – | 0 | 5 | 0 | 6
3 | O=[N+]([O-])c1cc(C(F)(F)F)c(Cl)c([N+](=O)[O-])c1Nc1ncc(C(F)(F)F)cc1Cl [Fluazinam] | – | – | – | 0 | 6 | 0 | 6
